Measured values as given in EP0438311A2, “Di- and tripeptide renin inhibitors” (MERCK & CO. INC., priority 1990, dated 1991).

Molecular target: T1, human plasma renin (Homo sapiens, UniProt P00797)
T1 construct: from tissue; host or cells: human plasma
T1 sequence (P00797 67-406): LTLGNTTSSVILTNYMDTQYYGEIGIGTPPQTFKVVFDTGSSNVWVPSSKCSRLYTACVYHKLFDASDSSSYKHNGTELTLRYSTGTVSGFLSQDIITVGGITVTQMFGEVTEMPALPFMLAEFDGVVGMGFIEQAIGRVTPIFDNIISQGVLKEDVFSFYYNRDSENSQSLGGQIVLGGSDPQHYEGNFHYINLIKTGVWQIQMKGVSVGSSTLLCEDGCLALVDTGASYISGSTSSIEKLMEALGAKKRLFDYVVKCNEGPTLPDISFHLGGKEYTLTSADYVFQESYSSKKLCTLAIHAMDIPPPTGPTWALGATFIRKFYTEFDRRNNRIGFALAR
Test: Inhibition of human plasma renin, in vitro method of Boger et al.
Format: biochemical
Conditions: J. Med. Chem. (1985) 28, 1779, read-out: IC₅₀
Experimental: Inhibition of human plasma renin was assayed using the in vitro method described by Boger, et. al., J. Med. Chem. (1985) 28, 1779. IC₅₀-1.3 nM.

Row | Compound | IC50
1 | Boc-Phe-His-(ACHP)-6(S)-Methyl-9(S)-Indolizidin-3-One-2(S)-yl [Example 3XX] | 6.8 nM
2 | CC(C)(C)OC(=O)N[C@@H](Cc1ccccc1)C(=O)N[C@@H](Cc1cnc[nH]1)C(=O)N[C@@H](CC1CCCCC1)[C@@H](O)[C@@H]1C[C@H]2COC[C@H](C3CCCC3)N2C1=O [Example 3D, Boc-Phe-His-(ACHP)-5(S)-Cyclopentyl-7-Oxa-9(S)-Indolizidin-3-One-2(S)-yl] | 1 nM
3 | C=C(C)C[C@H]1COC[C@@H]2C[C@@H]([C@H](O)[C@H](CC3CCCCC3)NC(=O)[C@H](Cc3cnc[nH]3)NC(=O)[C@H](Cc3ccccc3)NC(=O)OC(C)(C)C)C(=O)N12 [Example 3B, Boc-Phe-His-(ACHP)-5(S)-(2-Methallyl)-7-Oxa-9(S)-Indolizidin-3-One-2(S)-yl] | 0.97 nM
4 | CCC[C@H]1COC[C@@H]2C[C@@H]([C@H](O)[C@H](CC3CCCCC3)NC(=O)[C@H](Cc3cnc[nH]3)NC(=O)[C@H](Cc3ccccc3)NC(=O)OC(C)(C)C)C(=O)N21 [Example 3E, Boc-Phe-His-(ACHP)-5(S)-Propyl-7-Oxa-9(S)-Indolizidin-3-One-2(S)-yl] | 1 nM
5 | C=CC[C@H]1COC[C@@H]2C[C@@H]([C@H](O)[C@H](CC3CCCCC3)NC(=O)[C@H](Cc3c[nH]cn3)NC(=O)[C@H](Cc3ccccc3)NC(=O)OC(C)(C)C)C(=O)N21 [Example 3A, Boc-Phe-His-(ACHP)-5(S)-Allyl-7-Oxa-9(S)-Indolizidin-3-One-2(S)-yl] | 1.3 nM
6 | CC(C)C[C@H]1COC[C@@H]2C[C@@H]([C@H](O)[C@H](CC3CCCCC3)NC(=O)[C@H](Cc3cnc[nH]3)NC(=O)[C@H](Cc3ccccc3)NC(=O)OC(C)(C)C)C(=O)N12 [Example 3C, Boc-Phe-His-(ACHP)-5(S)-(2-Methylpropyl)-7-Oxa-9(S)-Indolizidin-3-One-2(S)-yl] | 2 nM
